Measured values: article PMC8092108, “Mycophenolate suppresses inflammation by inhibiting prostaglandin synthases: a study of molecular and experimental drug repurposing” (PeerJ, 2021)
“And” between values parts separate entries of the source, which are not always exact repeats. Identical values can stand only once. Like-named read-outs stand apart in the source and are kept apart here.

Experiments:
[1] = tested on: carrageenan-induced paw edema; assay: Carrageenan-induced rat paw edema test; type: in vivo; details: for Rat paw edema after treatment: MMF 12.5–50 mg/kg, indomethacin or celecoxib 10 mg/kg oral; for Rat paw size: individual rats 1-7
Protocol: The in vivo assay was performed by the rat paw edema inhibition test as previously described ([Morris, 2003]; [Winter, Risley & Nuss, 1962]). Forty-nine male adult albino rats weighing […] were obtained from the Animal Breeding Center at the College of Veterinary Medicine, King Faisal University, and were randomly divided into seven groups (n = 7/group). The animal groups included the nontreated control group, carrageenan group, and five groups receiving carrageenan and treated with either indomethacin, celecoxib, or MMF at three doses (12.5, 25, and 50 mg/kg). All rats were allowed free access to food and water. All cages were kept in controlled rooms at 25 °C and exposed to a 12-h light/dark cycle. MMF and two reference drugs, indomethacin and celecoxib, were suspended in 1% NaCMC in normal saline. A 1% carrageenan solution in normal saline was injected into the subplantar area of the right hind paw of rats. One hour before injection of carrageenan, rats were given either indomethacin or celecoxib at a dose rate of 10 mg/kg or MMF at three dose levels of 12.5, 25, and 50 mg/kg by oral administration. […] The measurements were blind to avoid measurement bias. The King Faisal University Ethics Committee (approval no. KFU-REC/2020-10-11) approved all animal experiments. Since no samples were taken from rats, there were no anesthesia procedures. The size of the hind paw was only measured in non-anesthetized rats. At the end of the experiment, all rats were euthanized according to the regulations of the King Faisal University Ethics Committee by an overdose of pentobarbital (200 mg/kg IP) and decapitation. The effect of MMF at different doses on relieving rat paw edema was compared with the control and standard NSAID-treated groups. Significant differences were determined by one-way analysis of variance (ANOVA) with Tukey’s post hoc test. All steps were implemented using GraphPad prism software (GraphPad Software, La Jolla, CA, USA).

12-LOX = assay: LOX inhibitor screening kit; type: biochemical
Protocol: The inhibitory effects of the drugs MMF and MPA on COX-1 and COX-2 were measured using the COX inhibitor screening assay kit and LOX inhibitor screening kit. The assay was performed according to the manufacturer’s directions and previously described methods ([Chowdhury et al., 2008]; [Lee et al., 2004]). Briefly, the reaction buffer (Tris–HCl buffer, pH 8.0) containing 5 mM EDTA, 2 mM phenol, and 1 µM hematin was measured into test tubes. The test drugs were dissolved in dimethyl sulfoxide and added to the tubes to final concentrations of […]. COX-1 or COX-2 was added to the test tubes and preincubated for 10 min at 37 °C. Arachidonic acid was then added, and the tubes were incubated for 2 min at 37 °C. The enzyme immunoassay was used to measure the concentration of the product prostaglandin F2α (PGF2α). The estimated values were determined after comparison to the predetermined standard curve. The IC50 was determined after three different experiments. The selectivity index was calculated from Eq. (1): […]

COX-1 = target: T1, COX-1 (Ovis aries, UniProt P05979); assay: COX inhibitor screening assay, COX-1; type: biochemical
T1 construct: purchased
T1 sequence (P05979 25-600): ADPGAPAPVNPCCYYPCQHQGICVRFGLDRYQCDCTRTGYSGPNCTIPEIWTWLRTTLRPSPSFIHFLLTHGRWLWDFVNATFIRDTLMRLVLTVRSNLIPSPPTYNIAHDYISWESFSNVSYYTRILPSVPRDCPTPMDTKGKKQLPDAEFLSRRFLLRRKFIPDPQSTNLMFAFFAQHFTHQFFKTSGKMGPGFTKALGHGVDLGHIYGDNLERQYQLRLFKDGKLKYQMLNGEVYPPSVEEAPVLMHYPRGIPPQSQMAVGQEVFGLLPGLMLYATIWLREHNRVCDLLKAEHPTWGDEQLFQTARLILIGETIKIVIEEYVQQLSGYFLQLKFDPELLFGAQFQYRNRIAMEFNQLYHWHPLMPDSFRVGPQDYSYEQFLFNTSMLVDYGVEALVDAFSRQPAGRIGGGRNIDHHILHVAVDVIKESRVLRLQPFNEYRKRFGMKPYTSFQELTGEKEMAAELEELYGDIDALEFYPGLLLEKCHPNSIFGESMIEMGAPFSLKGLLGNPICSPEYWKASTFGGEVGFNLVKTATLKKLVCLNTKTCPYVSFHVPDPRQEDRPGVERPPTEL
Protocol: (§1) The inhibitory effects of the drugs MMF and MPA on COX-1 and COX-2 were measured using the COX inhibitor screening assay kit and LOX inhibitor screening kit. […] Briefly, the reaction buffer (Tris–HCl buffer, pH 8.0) containing 5 mM EDTA, 2 mM phenol, and 1 µM hematin was measured into test tubes. The test drugs were dissolved in dimethyl sulfoxide and added to the tubes to final concentrations of […]. COX-1 or COX-2 was added to the test tubes and preincubated for 10 min at 37 °C. Arachidonic acid was then added, and the tubes were incubated for 2 min at 37 °C. The enzyme immunoassay was used to measure the concentration of the product prostaglandin F2α (PGF2α). The estimated values were determined after comparison to the predetermined standard curve. The IC50 was determined after three different experiments. The selectivity index was calculated from Eq. (1):
(§2) (1) Selectivity index=IC50COX−1/IC50COX−2

COX-2 = target: T2, COX-2 (Homo sapiens, UniProt P35354); assay: COX inhibitor screening assay, COX-2; type: biochemical
T2 construct: purchased
T2 sequence (P35354 18-604): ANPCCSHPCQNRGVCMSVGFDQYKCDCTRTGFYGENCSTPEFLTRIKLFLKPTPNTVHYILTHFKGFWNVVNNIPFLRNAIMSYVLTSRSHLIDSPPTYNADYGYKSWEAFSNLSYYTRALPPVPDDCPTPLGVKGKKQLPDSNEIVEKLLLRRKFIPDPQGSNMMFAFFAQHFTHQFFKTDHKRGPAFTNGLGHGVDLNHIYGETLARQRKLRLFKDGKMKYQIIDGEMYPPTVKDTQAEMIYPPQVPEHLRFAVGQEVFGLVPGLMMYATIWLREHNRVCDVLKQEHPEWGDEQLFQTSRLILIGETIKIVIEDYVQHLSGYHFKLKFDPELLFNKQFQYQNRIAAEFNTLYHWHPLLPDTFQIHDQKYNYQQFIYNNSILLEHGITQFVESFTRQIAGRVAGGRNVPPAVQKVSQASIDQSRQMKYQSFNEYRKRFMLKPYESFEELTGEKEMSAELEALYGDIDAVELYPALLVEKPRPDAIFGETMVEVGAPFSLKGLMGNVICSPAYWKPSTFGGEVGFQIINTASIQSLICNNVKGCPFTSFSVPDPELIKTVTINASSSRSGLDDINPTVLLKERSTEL
Protocol: as §1, §2

[2] = cited from earlier work

For `Cc1ccc(-c2cc(C(F)(F)F)nn2-c2ccc(S(N)(=O)=O)cc2)cc1` [Celecoxib, celecoxib], the “Rat paw edema after treatment” value [1] was “significantly relieved”, the Rat paw size ([1]; celecoxib 10 mg/kg oral, Time (h) 1) was 0.75 cm (4×) and 0.71 cm and 0.7 cm and 0.73 cm and the Rat paw size ([1]; celecoxib 10 mg/kg oral, Time (h) 2) was 0.75 cm and 0.65 cm (2×) and 0.7 cm and 0.67 cm and 0.68 cm and 0.6 cm. For the same compound, the Rat paw size ([1]; celecoxib 10 mg/kg oral, Time (h) 3) was 0.55 cm and 0.45 cm and 0.5 cm (3×) and 0.49 cm and 0.4 cm, the Rat paw size ([1]; celecoxib 10 mg/kg oral, Time (h) 4) was 0.5 cm (2×) and 0.48 cm and 0.45 cm (3×) and 0.4 cm and the Rat paw size ([1]; celecoxib 10 mg/kg oral, Time (h) 5) was 0.4 cm (3×) and 0.45 cm and 0.43 cm and 0.38 cm and 0.42 cm. The Rat paw size ([1]; celecoxib 10 mg/kg oral, Time (h) 6) was 0.6 cm (2×) and 0.56 cm and 0.55 cm (2×) and 0.65 cm and 0.5 cm.
`O=c1c(O)c(-c2ccc(O)c(O)c2)oc2cc(O)cc(O)c12` [Quercetin] gave an IC50 (12-LOX; read-out: IC50 12-LOX) of 3.33 µM.
For `COc1ccc2c(c1)c(CC(=O)O)c(C)n2C(=O)c1ccc(Cl)cc1` [Indomethacin, indomethacin], the “Rat paw edema after treatment” value [1] was “significantly relieved”, the Rat paw size ([1]; indomethacin 10 mg/kg oral, Time (h) 1) was 0.7 cm (4×) and 0.75 cm (3×) and the Rat paw size ([1]; indomethacin 10 mg/kg oral, Time (h) 2) was 0.7 cm and 0.6 cm (3×) and 0.55 cm (2×) and 0.5 cm. The Rat paw size ([1]; indomethacin 10 mg/kg oral, Time (h) 3) was 0.45 cm and 0.43 cm and 0.4 cm (2×) and 0.42 cm and 0.5 cm and 0.44 cm, the Rat paw size ([1]; indomethacin 10 mg/kg oral, Time (h) 4) was 0.35 cm and 0.38 cm and 0.4 cm (3×) and 0.39 cm and 0.37 cm and the Rat paw size ([1]; indomethacin 10 mg/kg oral, Time (h) 5) was 0.35 cm (2×) and 0.37 cm (3×) and 0.4 cm (2×). The Rat paw size ([1]; indomethacin 10 mg/kg oral, Time (h) 6) was 0.55 cm and 0.52 cm and 0.5 cm and 0.65 cm and 0.6 cm (2×) and 0.59 cm.
`COc1c(C)c2c(c(O)c1C/C=C(\C)CCC(=O)O)C(=O)OC2` [Mycophenolic acid, mycophenolic acid] gave an IC50 (COX-1) of 4.62 µM, an IC50 (COX-2) of 0.14 µM and a Selectivity index (COX-2; IC50 COX-1/IC50 COX-2) of 33.00. For the same compound, the IC50 (12-LOX; printed as 5-LOX in abstract and b38, read-out: IC50 5-LOX) was 4.49 µM, the IC50 (12-LOX; read-out: IC50 12-LOX) was 4.49 µM and the “Time to maximum serum MPA concentration” value ([2]; after MMF administration, ref Park, 2011) was 60 to 90 min. For the same compound, the “Clinically attainable MPA concentration” value ([2]; ref Margolis et al., 1999) was 1 to 10 µM.
